According to US20230190736A1, “SMALL MOLECULE THERAPEUTICS FOR THE TREATMENT OF VIRAL INFECTIONS” (priority 2020, published 2023):
Like-named read-outs stand apart in the source and are kept apart here.

Experiments:
Format in all cases: cell-based
[1] = system: SARS-CoV-2; test: microbe, parasite or virus in culture; settings: Severe acute respiratory syndrome coronavirus 2; secondary screen, doses 2.5, 25, 250 and 500 nM, immunofluorescent assay; read-out: IC50 anti SARS-CoV-2 activity
[2] = system: human lung stem cell derived Air-liquid interface (ALI) cells; test: Cell Titer glo viability assay in air-liquid interface (ALI) cultures; settings: up to 50 μM, 48 hours post treatment
Description: Series 1 and 2 are the values from independent wells.
Berzosertib was tested in a primary human lung tissue culture system consisting of mucociliary air-liquid interface (ALI) cultures derived from primary human proximal airway basal stem cells (ABSCs). 24-well 6.5 mm trans-wells with […] polyester membrane inserts were used for culturing ALI cells. 500 μl ALI media (PneumaCult-ALI Medium, […] Technologies) was used in the basal chamber for ALI cultures and cells were cultured at 37° C. with 5% CO2. […] Control cells were treated with the solvent DMSO. 48 hours post drug treatment, the cells were subjected to viability assay using Cell Titer glo kit.

[3] = system: SARS-CoV-2; test: microbe, parasite or virus in culture
[4] = system: SARS-CoV-2; settings: Compound A 50 nM, Compound B 50 nM; higher is better
[5] = system: SARS-CoV-2; test: mTORC1 inhibition of SARS-CoV-2 replication in Vero cells (fluorescence microscopy); settings: 25 nM, 72 hours
[6] = system: SARS-CoV-2; settings: 10 um, 1 hour pretreatment, MOI 1, 48 hpi

## CNCc1ccc(-c2cc(-c3nc(-c4ccc(S(=O)(=O)C(C)C)cc4)cnc3N)on2)cc1 [Berzosertib]
[1]
  IC50: 25 nM
[2]
  effect on cell viability: did not have any deleterious effect on cell viability
[2]; listed as berzosertib
  effect on cell viability: non-toxic and safe
[3]
  inhibition of virus positive cells: over 70%
[3]; Severe acute respiratory syndrome coronavirus 2, read-out: IC50 inhibiting SARS-CoV-2 determined by RTQPCR
  IC50: 40 nM

## COc1ccc(CC(C)NCC(O)c2ccc(O)c(NC=O)c2)cc1 (stereo not drawn) [Empty-Formoterol, Formoterol]
[4]
  Cell Number: Cell Nuclei Counts: 8390

## OCc1cc(C(O)CNCCCCCCOCCCCc2ccccc2)ccc1O (stereo not drawn) [Empty-Salmeterol, Salmeterol]
[4]
  Cell Number: Cell Nuclei Counts: 8193

## Cc1cn(-c2cc(NC(=O)c3ccc(C)c(Nc4nccc(-c5cccnc5)n4)c3)cc(C(F)(F)F)c2)cn1 [Nilotinib]
[1]
  IC50: 250 to 500 nM

## CNC(=O)c1cccc(-c2ccc3c(N4CCOC[C@@H]4C)nc(N4CCOC[C@@H]4C)nc3n2)c1 [Vistusertib]
[1]
  IC50: 25 nM
[5]
  presence of viral dsRNA: almost completely abolished

## CCN(CCO)CCCC(C)Nc1ccnc2cc(Cl)ccc12 (stereo not drawn) [hydroxychloroquine]
[6]
  inhibition of SARS-CoV-2 infection (dsRNA immunostaining): efficiently inhibited SARS-CoV-2 infection
[6]; listed as HQ
  inhibition of SARS-CoV-2 infection (dsRNA immunostaining): effectively blocked SARS-CoV-2 infection
